# From patent US6548494B1, “Tricyclic inhibitors of poly(ADP-ribose) polymerases” (Agouron Pharmaceuticals, Inc., priority 1999, dated 2003)
# “And” between values parts separate entries of the source, which are not always exact repeats. Equal values may be shown once.
# Experiments:
# purified PARP protein = purified PARP protein (Homo sapiens, UniProt P09874); assay: PARP enzyme inhibition assay; type: biochemical; conditions: 20 nM purified PARP (5 nM for tight-binding inhibitors), 500 μM NAD+, 25° C.; several values in one cell = repeat determinations; read-out: Inhibition Constant Ki
# Sequence of purified PARP protein (P09874 whole entry): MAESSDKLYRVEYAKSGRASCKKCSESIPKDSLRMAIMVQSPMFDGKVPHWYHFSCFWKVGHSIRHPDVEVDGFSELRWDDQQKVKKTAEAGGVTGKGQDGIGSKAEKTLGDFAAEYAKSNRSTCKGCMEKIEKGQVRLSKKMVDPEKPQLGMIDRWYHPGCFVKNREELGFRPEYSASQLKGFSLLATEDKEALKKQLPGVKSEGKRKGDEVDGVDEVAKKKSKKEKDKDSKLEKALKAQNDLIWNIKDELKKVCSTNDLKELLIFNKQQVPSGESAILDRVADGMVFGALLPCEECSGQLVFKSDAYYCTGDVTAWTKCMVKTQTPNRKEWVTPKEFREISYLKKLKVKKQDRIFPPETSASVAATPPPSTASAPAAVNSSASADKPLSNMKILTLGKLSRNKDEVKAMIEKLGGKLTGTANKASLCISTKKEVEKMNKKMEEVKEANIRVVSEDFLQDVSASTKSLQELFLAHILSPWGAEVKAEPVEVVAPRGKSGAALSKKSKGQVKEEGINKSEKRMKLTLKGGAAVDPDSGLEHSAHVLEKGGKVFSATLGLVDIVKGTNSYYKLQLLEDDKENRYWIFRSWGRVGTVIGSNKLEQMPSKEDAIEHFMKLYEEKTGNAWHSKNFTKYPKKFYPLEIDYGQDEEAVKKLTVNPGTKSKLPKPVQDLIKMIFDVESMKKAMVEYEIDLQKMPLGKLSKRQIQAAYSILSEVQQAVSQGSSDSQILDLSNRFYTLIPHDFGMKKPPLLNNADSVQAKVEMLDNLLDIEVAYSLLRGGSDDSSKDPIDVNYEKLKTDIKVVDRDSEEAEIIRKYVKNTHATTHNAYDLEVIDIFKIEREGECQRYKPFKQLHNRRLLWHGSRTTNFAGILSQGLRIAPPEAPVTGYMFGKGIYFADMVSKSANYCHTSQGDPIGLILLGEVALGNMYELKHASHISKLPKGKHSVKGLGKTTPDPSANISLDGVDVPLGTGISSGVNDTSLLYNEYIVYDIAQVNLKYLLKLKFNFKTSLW
# A549 cells = assay: Cytotoxicity potentiation assay; type: cell-based; conditions: test compound 0.4 μM, ratio of IC50 of topotecan alone to IC50 of topotecan with test compound
# Description: A549 cells (ATCC, Rockville, Md.) were seeded into 96-well cell culture plates (Falcon brand, Fisher Scientific, Pittsburgh, Pa.) 16 to 24 hours before experimental manipulation. Cells were then treated with a test compound (or a combination of test compounds where indicated) each at a concentration of 0.4 μM for either 3 days or 5 days. At the end of treatments, relative cell number was determined either by MTT assay or SRB assay. For the MTT assay, 0.2 μg/μl of MTT (3-(4,5-dimethylthiazol-2-yl)-2,5-diphenyltetrazolium bromide) (Sigma Chemical Co., St. Louis, Mo.) was added to each well of a plate, and the plate was incubated in a cell-culture incubator for 4 hours. Metabolized MTT in each well was solubilized in 150 μl of DMSO (Sigma Chemical Co.) with shaking and quantified with a Wallac 1420 Victor plate reader (EG&G Wallac, Gaithersburg, Md.) at 540 nm. For the SRB assay, cells were fixed with 10% trichloroacetic acid (Sigma Chemical Co) for an hour at 4° C. After extensively washing, fixed cells were stained for 30 minutes with 0.4% sulforhodamine B (SRB, Sigma Chemical Co.) in 1% acetic acid (Sigma Chemical Co). Unbound SRB was washed away with 1% acetic acid. Then the cultures were air-dried, and dye was solubilized with 10 mM unbuffered Tris base (Sigma Chemical Co) with shaking. The bound dye was measured photometrically with the Wallac Victor plate reader at 515 nm. The ratio of the OD (optical density) value of a compound-treated culture to the OD value of a mock-treated culture, expressed in percentage, was used to quantify the cytotoxicity of a compound. […] To quantify the potentiation of the cytotoxicity of topotecan or temozolomide by test compounds, a dimensionless parameter PF50 is used and is defined as the ratio of the IC50 of topotecan or temozolomide alone to the IC50 of topotecan or temozolomide in combination with a test compound. For the compounds of the invention, PF50 values were determined by testing with topotecan.
Compound,Ki (purified PARP protein),Cytotoxicity Potentiation PF50 (A549 cells),melting point
"O=C1NCCn2c(-c3cccc(Oc4ccccc4)c3)nc3cccc1c32 [Example 6, 1-(3-Phenoxy-phenyl)-8,9-dihydro-7H-2,7,9a-triaza-benzo[cd]azulen-6-one]",4.3 nM,2,216 to 219 °C
CN1CCCC1c1ccc(-c2nc3cccc4c3n2CCNC4=O)cc1 (stereo not drawn) [Example 149],4.2 nM,2.6,235 to 238 °C (dec.)
"O=C1NCCn2c(-c3ccc(C4CCCCN4)cc3)nc3cccc1c32 (stereo not drawn) [Example 130, 1-(4-Piperidin-2-yl-phenyl)-8,9-dihydro-7H-2,7,9a-triaza-benzo[cd]azulen-6-one]",4.4 nM and 5.6 nM,3.4,263 to 265 °C
"O=C1NCCn2c(-c3ccc(C4CCNCC4)cc3)nc3cccc1c32 [Example 137, 1-(4-Piperidin-4-yl-phenyl)-8,9-dihydro-7H-2,7,9a-triaza-benzo[cd]azulen-6-one]",5.4 nM,2.2,> 192 °C (dec.)
"CNCc1ccc(-c2nc3cccc4c3n2CCNC4=O)cc1 [Example 75, 1-(4-Methylaminomethyl-phenyl)-8,9-dihydro-7H-2,7,9a-triaza-benzo[cd]azulen-6-one]",1.9 nM,1.8,169 to 172 °C
"O=C1NCCn2c(-c3ccc(CNC4CC4)cc3)nc3cccc1c32 [Example 101, 1-(4-Cyclopropylaminomethyl-phenyl)-8,9-dihydro-7H-2,7,9a-triaza-benzo[cd]azulen-6-one]",2.3 nM,2.1,84 °C (dec.)
"O=C1NCCn2c(-c3ccc(-n4ccnc4)cc3)nc3cccc1c32 [Example 119, 1-(4-Imidazol-1-yl-phenyl)-8,9-dihydro-7H-2,7,9a-triaza-benzo[cd]azulen-6-one]",3.2 nM and 4.2 nM,2.2,> 300 °C (dec.)
"CN1CCCCC1c1ccc(-c2nc3cccc4c3n2CCNC4=O)cc1 (stereo not drawn) [Example 132, 1-[4-(1-Methyl-piperidin-2-yl)-phenyl]-8,9-dihydro-7H-2,7,9a-triaza-benzo[cd]azulen-6-one]",6.8 nM,2.4,> 180 °C (dec.)
"CN1CCC(c2ccc(-c3nc4cccc5c4n3CCNC5=O)cc2)CC1 [Example 141, 1-[4-(1-Methyl-piperidin-4-yl)-phenyl]-8,9-dihydro-7H-2,7,9a-triaza-benzo[cd]azulen-6-one]",5.5 nM,2.3,> 240 °C (dec.)
"CN(C)Cc1ccc(-c2cc3cc(F)cc4c3n2CCNC4=O)cc1 [Example 170, 6-(4-Dimethylaminomethyl-phenyl)-9-fluoro-3,4-dihydro-2H-[1,4]diazepino[6,7,1-hi]indol-1-one]",3.1 nM,1.9,172 to 174 °C
"O=C1NCCn2c(-c3ccc(Cl)cc3)cc3cccc1c32 [Example 34, 6-(4-Chlorophenyl)-3,4-dihydro-2H-[1,4]diazepino[6,7,1-hi]indol-1-one]",11 nM,1.8,178 to 180 °C
"O=C1NCCn2c(-c3cccc(C(F)(F)F)c3)nc3cccc1c32 [Example 10, 1-(3-Trifluoromethyl-phenyl)-8,9-dihydro-7H-2,7,9a-triaza-benzo[cd]azulen-6-one]",11.2 nM,1.7,250 to 252 °C
"O=C1NCCn2c(-c3ccccc3Cl)nc3cccc1c32 [Example 5, 1-(2-Chloro-phenyl)-8,9-dihydro-7H-2,7,9a-triaza-benzo[cd]azulen-6-one]",7.7 nM,1.3,253 to 255 °C
"CNCc1ccc(-c2nc3cc(F)cc4c3n2CCNC4=O)cc1 [Example 98, 4-Fluoro-1-(4-methylaminomethyl-phenyl)-8,9-dihydro-7H-2,7,9a-triaza-benzo[cd]azulen-6-one]",3.3 nM,2.1,204 to 208 °C (dec.)
"O=C1NCCn2c(-c3ccccn3)nc3cccc1c32 [Example 12, 1-Pyridin-2-yl-8,9-dihydro-7H-2,7,9a-triaza-benzo[cd]azulen-6-one]",21 nM and 17 nM,1.3,249 to 250 °C
"CN(C)CCc1ccc(-c2nc3cccc4c3n2CCNC4=O)cc1 [Example 129, 1-[4-(2-Dimethylamino-ethyl)-phenyl]-8,9-dihydro-7H-2,7,9a-triaza-benzo[cd]azulen-6-one]",5 nM,1.9,> 98 °C (dec.)
"CN(C)Cc1cccc(-c2nc3cccc4c3n2CCNC4=O)c1 [Example 32, 1-(3-Dimethylaminomethyl-phenyl)-8,9-dihydro-7H-2,7,9a-triaza-benzo[cd]azulen-6-one]",6.3 nM,1.8,192 to 194 °C (dec.)
"O=C1NCCn2c(-c3ccc(Cl)cc3)nc3cccc1c32 [Example 14, 1-(4-Chloro-phenyl)-8,9-dihydro-7H-2,7,9a-triaza-benzo[cd]azulen-6-one]",5.7 nM and 7.6 nM,1.8,272 to 274 °C
"O=C1NCCn2c(-c3ccc(-c4cccnc4)cc3)nc3cccc1c32 [Example 134, 1-(4-Pyridin-3-yl-phenyl)-8,9-dihydro-7H-2,7,9a-triaza-benzo[cd]azulen-6-one]",2.8 nM,2.5,284 to 286 °C
"O=C1NCCn2c(-c3cccs3)nc3cccc1c32 [Example 8, 1-Thiophen-2-yl-8,9-dihydro-7H-2,7,9a-triaza-benzo[cd]azulen-6-one]",6.2 nM,1.9,247 to 250 °C
